Structures are written as SMILES. Read-outs that look alike come from different tables or passages of the source.

For one series, the system named is bacterial mutagenicity. Particulars: cited from earlier work.
A short description of series [1]: Solubility in solvents by UHPLC assay. The class given is physicochemical. The source says: The tool called “Early phase solvent selection: solubility prediction” was used. This tool allows to predict the solubility of material in a large scope of solvents, knowing the solubility in some of them. The solubility can be also predicted in function of temperature, and for solvent combinations. The solubility prediction is based on similar structures moieties between solvents. Therefore, the measurement of solubility in 16 different solvents allowed for the estimate of solubility in up to 106 solvents. […] Solubilities were obtained by UHPLC assay. Among these 106 solvents, 27 seemed interesting as solvent or antisolvent. DMF. NMP and DMSO are the solvents in which rofecoxib (RXB-201) is the most soluble (>100 g/L at 30° C.). Nevertheless, ICH Q3C, DMF and NMP were less suitable than DMSO which remains the best option. Thus, no changes were implemented regarding the solvent.
Since the main purpose of the recrystallization is to decrease the rate of one single identified impurity, 4-[4-(methylsulfinyl)phenyl]-3-phenyl-2(5H)-furanone solubilities were measured in a couple of probable antisolvents identified in Table 9. A reference of 4-[4-(methylsulfinyl)phenyl]-3-phenyl-2(5H)-furanone (CHG P059-038) was synthesized at lab on 8 g for this study, with 98% purity, as per International Patent Application No. WO/2005/120584, which is incorporated herein in its entirety. Table 10 below reports the solubility of 4-[4-(methylsulfinyl)phenyl]-3-phenyl-2(5H)-furanone in various antisolvent candidates. It is noteworthy that 4-[4-(methylsulfinyl)phenyl]-3-phenyl-2(5H)-furanone is very soluble in acetic acid. […] Alcohols can alternatively be employed as antisolvent.

For series [2] the following is noted: in vivo; cited from earlier work.
The subject of a further series is arthritis model. To be noted: in vivo; cited from earlier work.
Setting [3] is: analog data from software training sets / literature.

For the compound `c1ccc(SCCSc2ccccc2)cc1` [1,2-bis(phenylthio)ethane], the Experimental mutagenicity entry with bacterial mutagenicity (setting [3]) is listed as “non-mutagenic”.

For the compound `CS(=O)(=O)c1ccc(C(=O)CBr)cc1` [LS-394467, 2-Bromo-1-[4-(methylsulfonyl)phenyl]-1-ethanone], the Experimental mutagenicity result in the series with bacterial mutagenicity (setting [3]) is listed as “positive”.

`O=C(CBr)c1ccccc1` [LS-188087, 2-bromoacetophenone]: in the series with bacterial mutagenicity, the Experimental mutagenicity entry is listed as “negative”.

Turning to `N#CCc1ccccc1` [A-RSM2-01, 2-phenylacetonitrile], the Experimental mutagenicity entry in the series with bacterial mutagenicity (setting [3]) is given as “negative”.

The term solubility denotes how much of the substance goes into solution per volume. Consider `C[S+]([O-])c1ccc(C2=C(c3ccccc3)C(=O)OC2)cc1` (stereo not drawn) [A-STG4-01, 4-(4-(methylsulfinyl)phenyl)-3-phenylfuran-2(5H)-one], for which the solubility in series [1] (acetic acid, 30 °C, organic solvent or mixture, Table 10: Acetic acid, 30 °C, read-out: Solubility) was 1540 mg/mL; in series [1] (acetic acid, organic solvent or mixture, acetic acid, temperature not stated, read-out: Solubility in acetic acid), above 1000 mg/mL; in series [1] (ethanol, 30 °C, organic solvent or mixture, Table 10: Ethanol, 30 °C, read-out: Solubility), 28 mg/mL; in series [1] (isopropanol (IPA), 30 °C, organic solvent or mixture, Table 10: IPA, 30 °C, read-out: Solubility), 0.2 mg/mL; in series [1] (n-butanol, 30 °C, organic solvent or mixture, Table 10: n-Butanol, 30 °C, read-out: Solubility), 14 mg/mL; in series [1] (water, 30 °C, water, Table 10: Water, 30 °C, read-out: Solubility), 0.7 mg/mL. In series [2], the “Pharmacokinetic profile compared with rofecoxib” value is “slightly improved”. In addition, the “Pharmacological activity in an arthritis model compared with rofecoxib” value in the series on arthritis model is listed as “better”.

The values above are taken from US11617735B2, “Purified forms of rofecoxib, methods of manufacture and use” (Tremeau Pharmaceuticals, Inc., priority 2018, dated 2023).
